# Non-standard residues stand in square brackets, D forms with d. Residues, ends and D or L forms follow the SMILES beside them. *: point of attachment. Hyp = O=C(O)[C@@H]1C[C@@H](O)CN1; NH(CH2)3NH2 = NCCCN*; Bn = c1ccc(C*)cc1
# Assays:
# MC3-R = MC3-R (Homo sapiens, UniProt P41968); assay: Competitive inhibition binding assay, 125I-NDP-α-MSH, MC3-R; design: expressed in transfected cells; settings: for Inhibition at 1 μM MC3-R: 1 μM compound, inhibition of 125I-NDP-α-MSH binding, mean of triplicates, results less than 0% reported as 0%
# Procedure: (§1) The competitive inhibition binding assay was conducted using membranes prepared from hMC3-R, hMC4-R, hMC5-R, and B-16 mouse melanoma cells (containing MC1-R) using 0.4 nM ^125I-NDP-α-MSH (New England Nuclear, Boston, Mass., USA) in 50 mM HEPES buffer containing 1 mM MgCl2, 2 mM CaCl2, and 5 mM KCl, at pH 7.2. The assay tube also contained a chosen concentration of the test peptidomimetic of this invention, generally 1 μM, for determining its efficacy in inhibiting the binding of ^125I-NDP-α-MSH to its receptor.
# (§2) Incubation was for 90 minutes at room temperature, after which the assay mixture was filtered and the membranes washed three times with ice cold buffer. The filter was dried and counted in a gamma counter for remaining radioactivity bound to the membranes. 100% specific binding was defined as the difference in radioactivity (cpm) bound to cell membranes in the absence and presence of 1 μM α-MSH. […] Each assay was conducted in triplicate and the actual mean values are described.
# MC5-R = MC5-R (Homo sapiens, UniProt P33032); assay: Competitive inhibition binding assay, 125I-NDP-α-MSH, MC5-R; design: expressed in transfected cells; settings: for Inhibition at 1 μM MC5-R: 1 μM compound, inhibition of 125I-NDP-α-MSH binding, mean of triplicates, results less than 0% reported as 0%
# Procedure: as §1, §2
# [1] = biological target: T1, MC1-R (B-16 mouse melanoma cells) (Mus musculus, UniProt Q01727); assay: Competitive inhibition binding assay, 125I-NDP-α-MSH, MC1-R; settings: for Inhibition at 1 μM MC1-R: 1 μM compound, inhibition of 125I-NDP-α-MSH binding, mean of triplicates, results less than 0% reported as 0%
# T1 construct: B-16 mouse melanoma cells (containing MC1-R); endogenous in cells; host or cells: B-16 mouse melanoma cells
# Procedure: as §1, §2
# MC4-R = MC4-R (Homo sapiens, UniProt P32245); assay: Competitive inhibition binding assay, 125I-NDP-α-MSH, MC4-R; design: expressed in transfected cells; settings: for Inhibition at 1 μM MC4-R: 1 μM compound, inhibition of 125I-NDP-α-MSH binding, mean of triplicates, results less than 0% reported as 0%
# Procedure: as §1, §2
# Sequence of MC5-R (P33032 whole entry): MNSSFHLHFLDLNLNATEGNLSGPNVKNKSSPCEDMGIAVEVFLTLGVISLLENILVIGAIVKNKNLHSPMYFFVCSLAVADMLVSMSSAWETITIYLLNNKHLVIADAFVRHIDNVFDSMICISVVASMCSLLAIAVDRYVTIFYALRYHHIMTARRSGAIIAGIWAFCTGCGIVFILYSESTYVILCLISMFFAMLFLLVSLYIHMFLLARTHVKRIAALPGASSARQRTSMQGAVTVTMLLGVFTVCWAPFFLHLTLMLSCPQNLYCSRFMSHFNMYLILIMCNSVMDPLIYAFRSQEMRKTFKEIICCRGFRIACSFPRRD
# Sequence of MC4-R (P32245 whole entry): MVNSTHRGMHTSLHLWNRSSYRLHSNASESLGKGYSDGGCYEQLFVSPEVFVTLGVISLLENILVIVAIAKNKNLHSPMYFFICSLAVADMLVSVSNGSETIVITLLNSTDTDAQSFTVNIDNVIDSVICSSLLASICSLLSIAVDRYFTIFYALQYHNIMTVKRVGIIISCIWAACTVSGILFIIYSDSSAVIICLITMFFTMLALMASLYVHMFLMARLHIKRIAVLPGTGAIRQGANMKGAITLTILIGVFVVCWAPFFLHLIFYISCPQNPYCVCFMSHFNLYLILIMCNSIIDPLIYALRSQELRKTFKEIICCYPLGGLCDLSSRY
# T1 sequence (Q01727 whole entry): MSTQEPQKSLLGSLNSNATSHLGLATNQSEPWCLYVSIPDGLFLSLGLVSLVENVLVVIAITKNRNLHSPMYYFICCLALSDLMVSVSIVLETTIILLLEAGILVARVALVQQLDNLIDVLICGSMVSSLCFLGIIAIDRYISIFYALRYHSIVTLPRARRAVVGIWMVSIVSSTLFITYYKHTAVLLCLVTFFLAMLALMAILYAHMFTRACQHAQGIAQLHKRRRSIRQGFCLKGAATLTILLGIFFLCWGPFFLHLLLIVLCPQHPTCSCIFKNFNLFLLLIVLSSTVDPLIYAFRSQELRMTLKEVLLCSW
# Sequence of MC3-R (P41968 whole entry): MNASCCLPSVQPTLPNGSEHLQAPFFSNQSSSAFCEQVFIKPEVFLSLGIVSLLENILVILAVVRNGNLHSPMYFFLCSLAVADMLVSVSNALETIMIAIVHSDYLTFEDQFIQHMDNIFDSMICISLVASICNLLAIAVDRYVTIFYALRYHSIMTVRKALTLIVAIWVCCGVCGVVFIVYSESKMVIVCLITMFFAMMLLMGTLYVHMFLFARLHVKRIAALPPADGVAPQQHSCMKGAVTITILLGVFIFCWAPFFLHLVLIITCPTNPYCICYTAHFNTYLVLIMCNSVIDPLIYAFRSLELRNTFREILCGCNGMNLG
Structure (SMILES),Inhibition at 1 μM MC3-R (MC3-R),Inhibition at 1 μM MC5-R (MC5-R),Inhibition at 1 μM MC1-R [1],Inhibition at 1 μM MC4-R (MC4-R),inhibition at 1 µM (MC3-R),inhibition at 1 µM (MC5-R),inhibition at 1 µM [1],inhibition at 1 µM (MC4-R)
NCCCC[C@H]1C(=O)N2C(CC[C@@H]2COc2ccc3ccccc3c2)N1C(=O)[C@@H](Cc1ccccc1Cl)NC(=O)[C@@H](N)C1Cc2ccccc2C1 (some centres unmarked) [Example 90],0%,46%,10%,12%,–,–,–,–
NCCCC[C@H]1C(=O)N2C(CC[C@@H]2COc2ccc3ccccc3c2)N1C(=O)[C@@H](Cc1ccccc1Cl)NC(=O)[C@@H]1C[C@H](Oc2ccc3ccccc3c2)CN1 (some centres unmarked) [Example 91],0%,17%,21%,0%,–,–,–,–
NCCCC[C@H]1C(=O)N2C(CC[C@@H]2COc2ccc3ccccc3c2)N1C(=O)[C@@H](Cc1ccccc1Cl)NC(=O)[C@@H]1C[C@H](Oc2ccccc2)CN1 (some centres unmarked) [Example 92],0%,21%,7%,22%,–,–,–,–
NCCCC[C@H]1C(=O)N2C(CC[C@@H]2COc2ccc3ccccc3c2)N1C(=O)[C@@H](Cc1ccccc1Cl)NC(=O)[C@H]1Cc2ccccc2CN1 (some centres unmarked) [Example 93],12%,18%,47%,79%,–,–,–,–
NCCCC[C@H]1C(=O)N2C(CC[C@@H]2COc2ccc3ccccc3c2)N1C(=O)[C@@H](Cc1ccccc1Cl)NC(=O)[C@@H]1Cc2ccccc2N1 (some centres unmarked) [Example 95],0%,14%,34%,47%,–,–,–,–
NCCCC[C@H]1C(=O)N2C(CC[C@@H]2COc2ccc3ccccc3c2)N1C(=O)[C@@H](Cc1ccccc1Cl)NC(=O)C1(N)CCc2ccccc21 (some centres unmarked) [Example 96],0%,17%,39%,12%,–,–,–,–
[2H]NC(Cc1cnc[nH]1)C(=O)NC(Cc1ccccc1)C(=O)N1C(CCCNC(=N)N)C(=O)N2C(COc3ccc4ccccc4c3)CCC21 (centres unmarked) [Example 97],30%,28%,99%,69%,–,–,–,–
NCCCC[C@H]1C(=O)N2C(CC[C@@H]2COc2ccc3ccccc3c2)N1C(=O)[C@@H](Cc1ccccc1Cl)NCc1ccccc1 (some centres unmarked) [Example 102],13%,14%,11%,16%,–,–,–,–
NCCCCC1C(=O)N2C(COc3ccccc3)CCC2N1C(=O)C(N)Cc1ccc(Cl)cc1 (centres unmarked) [Example 103],0%,0%,9%,0%,–,–,–,–
NCCCCC1C(=O)N2C(COc3ccccc3)CCC2N1C(=O)C(N)Cc1ccccc1Cl (centres unmarked) [Example 104],4%,0%,0%,0%,–,–,–,–
NCCCC[C@H]1C(=O)N2C(CC[C@@H]2COc2ccccc2)N1C(=O)[C@@H](Cc1ccc(Cl)cc1)NC(=O)[C@@H]1Cc2ccccc2CN1 (some centres unmarked) [Example 106],19%,25%,81%,51%,–,–,–,–
NCCCC[C@H]1C(=O)N2C(CC[C@@H]2COc2ccc3c(c2)CCCC3)N1C(=O)[C@@H](Cc1ccc(Cl)cc1)NC(=O)[C@@H]1Cc2ccccc2CN1 (some centres unmarked) [Example 108],19%,66%,96%,94%,–,–,–,–
NCCCC[C@H]1C(=O)N2C(CC[C@@H]2COc2ccc3c(c2)CCCC3)N1C(=O)[C@@H](Cc1ccc(Cl)cc1)NC(=O)[C@@H](N)COCc1ccccc1 (some centres unmarked) [Example 109],4%,56%,93%,78%,–,–,–,–
NCCCCCCC(=O)N[C@@H](COCc1ccccc1)C(=O)N[C@H](Cc1ccc(Cl)cc1)C(=O)N1C2CC[C@H](COc3ccc4c(c3)CCCC4)N2C(=O)[C@@H]1CCCCN (some centres unmarked) [Example 110],59%,84%,97%,96%,–,–,–,–
N=C(N)NCCC[C@H]1C(=O)N(CCc2ccc3ccccc3c2)CCN1C(=O)[C@H](N)Cc1ccccc1Cl [Example 122],2%,5%,3%,69%,–,–,–,–
N=C(N)NCCC[C@H]1C(=O)N(CCc2ccc3ccccc3c2)CCN1C(=O)[C@H](N)Cc1ccc(Cl)cc1 [Example 123],38%,29%,34%,87%,–,–,–,–
N=C(N)NCCC[C@H]1C(=O)N(CCc2c[nH]c3ccccc23)CCN1C(=O)[C@H](N)Cc1ccc(Cl)cc1Cl [Example 124],57%,35%,7%,96%,–,–,–,–
N=C(N)NCCC[C@H]1C(=O)N(CCc2c[nH]c3ccccc23)CCN1C(=O)[C@H](N)Cc1ccc(Cl)cc1 [Example 125],28%,43%,10%,68%,–,–,–,–
Cc1ccc(CCN2CCN(C(=O)[C@H](N)Cc3ccc(Cl)cc3Cl)[C@@H](CCCNC(=N)N)C2=O)cc1 [Example 126],42%,34%,11%,78%,–,–,–,–
Cc1ccc(CCN2CCN(C(=O)[C@H](N)Cc3ccc(Cl)cc3)[C@@H](CCCNC(=N)N)C2=O)cc1 [Example 127],9%,17%,9%,49%,–,–,–,–
N=C(N)c1ccc(C[C@H]2C(=O)N(CCc3ccc4ccccc4c3)CCN2C(=O)[C@H](N)Cc2ccc(Cl)cc2Cl)cc1 [Example 128],0%,21%,5%,31%,–,–,–,–
NCCC[C@H]1CN(CCc2ccc3ccccc3c2)CCN1C(=O)[C@H](N)Cc1ccc(Cl)cc1Cl [Example 130],33%,39%,0%,81%,–,–,–,–
C[C@H](N)C(=O)N[C@@H](Cc1cnc[nH]1)C(=O)N[C@H](Cc1ccccc1)C(=O)N1C[C@H](OCc2ccccc2)C[C@H]1C(=O)NCCCN [Example 135] (H-AH[dF][Hyp](Bn)-{NH(CH2)3NH2}),0%,0%,93%,0%,–,–,–,–
[2H]N[C@@H](Cc1ccccc1)C(=O)N1C[C@H](OCc2ccccc2)C[C@H]1C(=O)NCCCN [Example 137],–,–,–,–,0%,0%,23%,0%
CCCCCCC(=O)N[C@@H](COCc1ccccc1)C(=O)N[C@H](Cc1ccc2ccccc2c1)C(=O)N1C[C@@H](Oc2ccc3ccccc3c2)C[C@H]1C(=O)NCCCN [Example 138],0%,0%,39%,0%,–,–,–,–
CC(=O)NC(Cc1cnc[nH]1)C(=O)NC(Cc1ccccc1)C(=O)N1CC(OCc2ccccc2)CC1C(=O)NCCCN (centres unmarked) [Example 139],46%,34%,85%,43%,–,–,–,–

# — patent US7807678B2, “Peptidomimetics of biologically active metallopeptides” (Palatin Technologies, Inc., priority 2001, dated 2010)
